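How tested: cells in 96-well plates exposed to compound for 48 hours at five concentrations. At the GI50, growth is halved. At the TGI there is no net growth.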
Legend:
Assay in all cases: DTP human tumour cell line panel, 48 h
U251 CNS = test system: U251 CNS
A498 renal = test system: A498 renal
NCI-H226 lung = test system: NCI-H226 lung
HL-60(TB) leukemia = test system: HL-60(TB) leukemia
HOP-92 NSCLC = test system: HOP-92 NSCLC
PC-3 prostate = test system: PC-3 prostate
SF-268 CNS = test system: SF-268 CNS
COLO 205 colon = test system: COLO 205 colon
NCI-H460 lung = test system: NCI-H460 lung
MOLT-4 leukemia = test system: MOLT-4 leukemia
SK-OV-3 ovarian = test system: SK-OV-3 ovarian
CAKI-1 renal = test system: CAKI-1 renal
HCC-2998 colon = test system: HCC-2998 colon
RXF 393 renal = test system: RXF 393 renal
OVCAR-5 ovarian = test system: OVCAR-5 ovarian
HCT-116 colon = test system: HCT-116 colon
786-0 renal = test system: 786-0 renal
HS 578T breast = test system: HS 578T breast
KM12 colon = test system: KM12 colon
SK-MEL-2 melanoma = test system: SK-MEL-2 melanoma
SNB-75 CNS = test system: SNB-75 CNS
T-47D breast = test system: T-47D breast
ACHN renal = test system: ACHN renal
K-562 leukemia = test system: K-562 leukemia
BT-549 breast = test system: BT-549 breast
SK-MEL-28 melanoma = test system: SK-MEL-28 melanoma
EKVX NSCLC = test system: EKVX NSCLC
UACC-257 melanoma = test system: UACC-257 melanoma
MDA-MB-231 breast = test system: MDA-MB-231 breast
RPMI-8226 leukemia = test system: RPMI-8226 leukemia
HOP-62 NSCLC = test system: HOP-62 NSCLC
HCT-15 colon = test system: HCT-15 colon
SK-MEL-5 melanoma = test system: SK-MEL-5 melanoma
DU-145 prostate = test system: DU-145 prostate
M14 melanoma = test system: M14 melanoma
OVCAR-4 ovarian = test system: OVCAR-4 ovarian
OVCAR-3 ovarian = test system: OVCAR-3 ovarian
SNB-19 CNS = test system: SNB-19 CNS
HT29 colon = test system: HT29 colon
LOX IMVI melanoma = test system: LOX IMVI melanoma
A549 NSCLC = test system: A549 NSCLC
SN12C renal = test system: SN12C renal
OVCAR-8 ovarian = test system: OVCAR-8 ovarian
MDA-MB-435 = test system: MDA-MB-435
MCF7 breast = test system: MCF7 breast
UO-31 renal = test system: UO-31 renal
TK-10 renal = test system: TK-10 renal
MALME-3M melanoma = test system: MALME-3M melanoma
UACC-62 melanoma = test system: UACC-62 melanoma
NCI-H23 lung = test system: NCI-H23 lung
NCI/ADR-RES ovarian = test system: NCI/ADR-RES ovarian
IGROV1 ovarian = test system: IGROV1 ovarian
SF-539 CNS = test system: SF-539 CNS
SW-620 colon = test system: SW-620 colon
CCRF-CEM leukemia = test system: CCRF-CEM leukemia
SR leukemia = test system: SR leukemia

## CC(=O)O.CC(=O)O.CC(=O)O.CC(=O)O.[Rh].[Rh]
U251 CNS
  GI50: 25.2 µM
  TGI: 75.3 µM
A498 renal
  GI50: 18.8 µM
  TGI: 37.2 µM
NCI-H226 lung
  GI50: 22 µM
  TGI: 99.2 µM
HL-60(TB) leukemia
  GI50: 23.7 µM
  TGI: 50.9 µM
HOP-92 NSCLC
  GI50: 25.5 µM
  TGI: 63.1 µM
PC-3 prostate
  GI50: 27.1 µM
  TGI: 91 µM
SF-268 CNS
  GI50: 33.2 µM
  TGI: > 100 µM
COLO 205 colon
  GI50: 7.3 µM
  TGI: 30.1 µM
NCI-H460 lung
  GI50: 37.4 µM
  TGI: > 100 µM
MOLT-4 leukemia
  GI50: 22.6 µM
  TGI: 47 µM
SK-OV-3 ovarian
  GI50: > 100 µM
  TGI: > 100 µM
CAKI-1 renal
  GI50: 12.2 µM
  TGI: 30.7 µM
HCC-2998 colon
  GI50: 24 µM
  TGI: 56.7 µM
RXF 393 renal
  GI50: 10.5 µM
  TGI: 78.3 µM
OVCAR-5 ovarian
  GI50: 20.5 µM
  TGI: 52.4 µM
HCT-116 colon
  GI50: 24.1 µM
  TGI: 94.1 µM
786-0 renal
  GI50: 34.8 µM
  TGI: > 100 µM
HS 578T breast
  GI50: 60.6 µM
  TGI: > 100 µM
KM12 colon
  GI50: 34.8 µM
  TGI: > 100 µM
SK-MEL-2 melanoma
  GI50: 30.7 µM
  TGI: 81.4 µM
SNB-75 CNS
  GI50: 30.5 µM
  TGI: > 100 µM
T-47D breast
  GI50: 14.9 µM
  TGI: > 100 µM
ACHN renal
  GI50: 24.9 µM
  TGI: > 100 µM
K-562 leukemia
  GI50: 18.5 µM
  TGI: 56.2 µM
BT-549 breast
  GI50: 29.5 µM
  TGI: 90.3 µM
SK-MEL-28 melanoma
  GI50: 32.3 µM
  TGI: 93.8 µM
EKVX NSCLC
  GI50: 20.7 µM
  TGI: 44.1 µM
UACC-257 melanoma
  GI50: 19.5 µM
  TGI: 64.8 µM
MDA-MB-231 breast
  GI50: 48.6 µM
  TGI: > 100 µM
RPMI-8226 leukemia
  GI50: 19.4 µM
  TGI: 50.8 µM
HOP-62 NSCLC
  GI50: 28.8 µM
  TGI: 84.3 µM
HCT-15 colon
  GI50: 28.5 µM
  TGI: 83.9 µM
SK-MEL-5 melanoma
  GI50: 18.6 µM
  TGI: 37 µM
DU-145 prostate
  GI50: 47.9 µM
  TGI: > 100 µM
M14 melanoma
  GI50: 27.8 µM
  TGI: 82.5 µM
OVCAR-4 ovarian
  GI50: 37 µM
  TGI: > 100 µM
OVCAR-3 ovarian
  GI50: 26.1 µM
  TGI: > 100 µM
SNB-19 CNS
  GI50: 60 µM
  TGI: > 100 µM
HT29 colon
  GI50: 21.2 µM
  TGI: 53.6 µM
LOX IMVI melanoma
  GI50: 17.2 µM
  TGI: 61.9 µM
A549 NSCLC
  GI50: 28.6 µM
  TGI: > 100 µM
SN12C renal
  GI50: 40.3 µM
  TGI: > 100 µM
OVCAR-8 ovarian
  GI50: 27.6 µM
  TGI: > 100 µM
MDA-MB-435
  GI50: 21.7 µM
  TGI: 55.4 µM
MCF7 breast
  GI50: 27.2 µM
  TGI: > 100 µM
UO-31 renal
  GI50: 20.6 µM
  TGI: 59 µM
TK-10 renal
  GI50: 18.3 µM
  TGI: 56.4 µM
MALME-3M melanoma
  GI50: 7.06 µM
  TGI: 37.4 µM
UACC-62 melanoma
  GI50: 24.3 µM
  TGI: 56.5 µM
NCI-H23 lung
  GI50: 32.1 µM
  TGI: > 100 µM
NCI/ADR-RES ovarian
  GI50: 30.2 µM
  TGI: 92.2 µM
IGROV1 ovarian
  GI50: 34 µM
  TGI: 91.1 µM
SF-539 CNS
  GI50: 26.4 µM
  TGI: 88.4 µM
SW-620 colon
  GI50: 22 µM
  TGI: > 100 µM
CCRF-CEM leukemia
  GI50: 5.1 µM
  TGI: 20.3 µM
SR leukemia
  GI50: 21.1 µM
  TGI: 40.2 µM
